Numbered stars: 1 amine (or outer) side, 2 acyl side, 3 side chain; on linkers, the order of the positions; unused ones are H or OH. Bridge positions count the residues as written; N and C are the ends. Ends that are not written are not given here. Peptide text beside a SMILES is read from it. * marks the point of attachment. X2 = C[C@@H]1NC(=O)[C@H](C)NC(=O)[C@H](CC(=O)O)NC(=O)[C@@H](N)CSCc2cc3cc(c2)CSC[C@@H](C(=O)*)NC(=O)[C@H](CSC3)NC1=O; mXylylene = c1cc(C[*:1])cc(C[*:2])c1
What was measured:
circular dichroism = conditions: PBS; pH 7.4; 25 °C; 5-30 uM
[1] = CD spectroscopy: percent helicity and ellipticity ratio 222/208 nm; type: physicochemical; conditions: for % helicity: 5-30 μM peptide, three scans averaged, [θ]222/[θ]max
Method: Circular dichroism (CD) experiments
Concentrations of the stock solution were determined by […] absorption of Trp or 275 nm absorption of Tyr (and TMB, if present in peptides). Each sample was dissolved in 1x PBS (pH 7.4), 10% TFE/PBS or 20% TFE/PBS with the final concentration between 5 to 30 μM. CD spectra were acquired using circular dichroism spectrometer (Chirascan) equipped with a temperature controller using 1 mm cell at a scan speed of 0.5 nm/sec at indicated temperature. Each sample was scanned three times and the averaged spectrum was smoothed.
Calculation of percent helicity
For simplicity, ‘helicity’ or ‘helical’ in the following text all refers to α-type. For each peptide, mean residue ellipticities ([θ]/(c*n), c = concentration of the peptide, n = number of amino acids in the peptide) were used to calculate % helicity, which is an empirical indicator of peptide helicity. […] (n = number of amino acids in the peptide, T = 25.0 °C).

[2] = In vitro peptide stability in human serum; type: in vitro ADME; conditions: 25% male human serum diluted in RPMI medium, 150 μM peptide, 37 °C, serum pre-equilibrated 15 min, methanol precipitation, RP-HPLC 210 nm peak area relative to 0 h, LC-MS for products
Method: In vitro peptide stability in human serum[50]
Male human serum (H-4522) was obtained from Sigma Aldrich (Missouri, USA). […] The initial time is recorded as peptides were added. The mixture was incubated at 37 °C and an aliquot of 40 μL was removed at different time intervals. […] The supernatant was analyzed in analytical RP-HPLC to calculate the amount of tested peptides, and in LCMS to analyze degradation products. The eluted peptides were detected by absorbance at 210 nm and quantified by their peak areas relative to the initial peak areas (0 h).

[3] = Amide H-D exchange study (NMR), protection factors; type: physicochemical; conditions: for H/D exchange experiment, per-residue value (Fig 5i): amide H-D exchange by NMR
Method: Lyophilized samples of peptides LDLL 12-mer and bicyclo 12-mer from the above experiments were dissolved in 600 µL of D2O/ TFE-d3 mixture (4:1) to initialize the H-D exchange. The pH of the solution was confirmed. Spectra were recorded on a preshimmed Bruker AVANCE 500 MHz spectrometer. The recorded temperature was 33 °C. The intensity changes for each amide proton were determined by monitoring either the NH peaks on 1D spectra or the cross-peaks between NH and RH on 2D TOCSY spectra when overlapping was severe. The peak intensity data was fit into one phase exponential equation to get the exchange rate constants using GraphPad Prism 6.0 program. The rate constants were input into Englander lab’s spreadsheet (https://hx2.med.upenn.edu/download.html) to calculate protection factor and stabilization energy.

[4] = CD in PBS buffer (pH 7.4, 10 mM), 25.0 °C, 1 mm cell

% helicity [1, 4] [%]	Molecule	helicity (circular dichroism) [%]	also measured
59	C[C@H](NC(=O)[C@H](CCCCN)NC(=O)[C@H](C)NC(=O)[C@H](C)NC(=O)[C@H](C)NC(=O)[C@@H]1CSCc2cc3cc(c2)CSC[C@H](NC(=O)[C@@H](N)Cc2c[nH]c4ccccc24)C(=O)N[C@@H](CC(=O)O)C(=O)N[C@@H](C)C(=O)N[C@@H](C)C(=O)N[C@@H](CSC3)C(=O)N1)C(N)=O [bicyclo 12-mer]	–	ellipticity ratio 222/208 nm ([1]; CD in 10% TFE/PBS, 25 °C): 1.21; % helicity ([1]; CD in 10% TFE/PBS, 25 °C): 72%; ellipticity ratio 222/208 nm ([1]; CD in PBS, 25 °C): 0.76; protection factors (H/D exchange) around the capping region ([3]; D2O/TFE-d3 (4:1), 33 °C, NMR 500 MHz): significantly higher than for the linear LDLL 12-mer
53	Ac-FDAALLAAAKAAAAKAW-NH2 [FDLL]	53	–
69	Ac-IDAALLAAAKAAAAKAW-NH2 [IDLL]	69	–
45	Ac-LAAALLAAAKAAAAKAW-NH2 [LALL]	45	–
69	Ac-LDAAALAAAKAAAAKAW-NH2 [LDAL]	69	–
52	Ac-LDAAELAAAKAAAAKAW-NH2 [LDEL]	52	–
69	Ac-LDAAFLAAAKAAAAKAW-NH2 [LDFL]	69	–
39	Ac-LDAALAAAAKAAAAKAW-NH2 [LDLA]	39	–
83	Ac-LDAALFAAAKAAAAKAW-NH2 [LDLF]	83	–
52	Ac-LDAALIAAAKAAAAKAW-NH2 [LDLI]	52	–
101	Ac-LDAALLAAAKAAAAKAAAAKAW-NH2 [LDLL 22-mer]	101	–
93	Ac-LDAALLAAAKAAAAKAW-NH2 [LDLL]	93	–
28	Ac-LDAALLAAAKAW-NH2 [LDLL 12-mer]	–	ellipticity ratio 222/208 nm ([1]; CD in 10% TFE/PBS, 25 °C): 0.57; % helicity ([1]; CD in 10% TFE/PBS, 25 °C): 43%; ellipticity ratio 222/208 nm ([1]; CD in PBS, 25 °C): 0.39
70	Ac-LDAALVAAAKAAAAKAW-NH2 [LDLV]	70	–
37	Ac-LDAAQLAAAKAAAAKAW-NH2 [LDQL]	37	–
67	Ac-LDAASLAAAKAAAAKAW-NH2 [LDSL]	67	–
63	Ac-LDAATLAAAKAAAAKAW-NH2 [LDTL]	63	–
48	Ac-VDAALLAAAKAAAAKAW-NH2 [VDLL]	48	–

More lines, now with the values behind:

Molecule	% helicity [1, 4] [%]	helicity (circular dichroism) [%]	also measured
C[C@H](NC(=O)[C@H](CCCCN)NC(=O)[C@H](C)NC(=O)[C@H](C)NC(=O)[C@H](C)NC(=O)[C@@H]1CSCc2cc3cc(c2)CSC[C@H](NC(=O)[C@@H](N)Cc2c[nH]c4ccccc24)C(=O)N[C@@H](CC(=O)O)C(=O)N[C@@H](C)C(=O)N[C@@H](C)C(=O)N[C@@H](CSC3)C(=O)N1)C(N)=O	–	59	–
C[C@H](NC(=O)[C@H](CCCCN)NC(=O)[C@H](C)NC(=O)[C@H](C)NC(=O)[C@H](C)NC(=O)[C@@H]1CSCc2cccc(c2)CSC[C@H](NC(=O)[C@@H](N)Cc2c[nH]c3ccccc23)C(=O)N[C@@H](CC(=O)O)C(=O)N[C@@H](C)C(=O)N[C@@H](C)C(=O)N[C@@H](C)C(=O)N1)C(N)=O (H-WCDAAACAAAKA-NH2; linker 2-7 via mXylylene)	–	34	–
C[C@H](NC(=O)[C@H](CCCCN)NC(=O)[C@H](C)NC(=O)[C@H](C)NC(=O)[C@H](C)NC(=O)[C@H](C)NC(=O)[C@@H]1CSCc2cccc(c2)CSC[C@H](NC(=O)[C@@H](N)Cc2c[nH]c3ccccc23)C(=O)N[C@@H](CC(=O)O)C(=O)N[C@@H](C)C(=O)N[C@@H](C)C(=O)N1)C(N)=O (H-WCDAACAAAAKA-NH2; linker 2-6 via mXylylene)	–	32	–
CSC[C@H](NC(=O)[C@H](C)NC(=O)[C@H](CCC(N)=O)NC(=O)[C@H](CC(=O)O)NC(=O)[C@@H](N)CSC)C(=O)N[C@@H](CSC)C(=O)N[C@@H](CC(C)C)C(=O)N[C@@H](CC(C)C)C(=O)N[C@@H](CCCNC(=N)N)C(=O)N[C@@H](C)C(=O)N[C@@H](CC(C)C)C(=O)N[C@@H](CC(=O)O)C(=O)N[C@@H](CCC(N)=O)C(=O)N[C@@H](Cc1ccc(O)cc1)C(N)=O [2m] (H-C(Me)DQAC(Me)C(Me)LLRALDQY-NH2; N-terminus and C-terminus assumed)	10	10	ellipticity ratio 222/208 nm ([1]; CD in 10% TFE/PBS, 25 °C): 0.44; % helicity ([1]; CD in 10% TFE/PBS, 25 °C): 24%; ellipticity ratio 222/208 nm ([1]; CD in PBS, 25 °C): 0.23
CC[C@H](C)[C@H](NC(=O)[C@H](CC(N)=O)NC(=O)[C@H](CCCCN)NC(=O)[C@@H]1CSCc2cc3cc(c2)CSC[C@H](N)C(=O)N[C@@H](CC(=O)O)C(=O)N[C@@H](C)C(=O)N[C@@H](C)C(=O)N[C@@H](CSC3)C(=O)N1)C(=O)N[C@@H](C)C(=O)N[C@@H](CO)C(=O)N[C@@H](CC(C)C)C(=O)N[C@@H](CC(C)C)C(=O)N[C@@H](CCCNC(=N)N)C(=O)N[C@H](C(=O)N[C@@H](CCC(N)=O)C(=O)N[C@@H](C)C(=O)N[C@@H](Cc1c[nH]cn1)C(=O)N[C@H](C(=O)N[C@@H](CCCNC(=N)N)C(=O)N[C@@H](CCCCN)C(=O)N[C@@H](CCCCN)C(=O)N[C@@H](CCSC)C(=O)N[C@H](C(=O)N[C@@H](Cc1ccc(O)cc1)C(N)=O)C(C)C)[C@@H](C)CC)C(C)C [4B] (X2-KNIASLLRVQAHIRKKMVY-NH2; N-terminus and C-terminus assumed)	22	–	ellipticity ratio 222/208 nm ([1]; CD in 10% TFE/PBS, 25 °C): 1; % helicity ([1]; CD in 10% TFE/PBS, 25 °C): 45%; ellipticity ratio 222/208 nm ([1]; CD in PBS, 25 °C): 0.64; half-life [2]: 1.1 h
C[C@H](NC(=O)[C@H](CCCCN)NC(=O)[C@H](C)NC(=O)[C@H](C)NC(=O)[C@H](C)NC(=O)[C@@H]1CSCc2cc3cc(c2)CSC[C@H](NC(=O)[C@@H](N)Cc2c[nH]c4ccccc24)C(=O)N[C@@H](CC(=O)O)C(=O)N[C@@H](C)C(=O)N[C@@H](C)C(=O)N[C@@H](CSC3)C(=O)N1)C(N)=O [Bicyclo-short]	–	–	H/D exchange experiment, per-residue value (Fig 5i) ([3]; resi ID 3): 1.33; H/D exchange experiment, per-residue value (Fig 5i) ([3]; resi ID 4): 1.81; H/D exchange experiment, per-residue value (Fig 5i) ([3]; resi ID 5): 2.88; H/D exchange experiment, per-residue value (Fig 5i) ([3]; resi ID 6): 3.7; H/D exchange experiment, per-residue value (Fig 5i) ([3]; resi ID 7): 2.57; H/D exchange experiment, per-residue value (Fig 5i) ([3]; resi ID 8): 2.46; H/D exchange experiment, per-residue value (Fig 5i) ([3]; resi ID 9): 2.32; H/D exchange experiment, per-residue value (Fig 5i) ([3]; resi ID 10): 2.24
Ac-AAAAKAAAAKAAAAKAAAAKAW-NH2 [AAKA 22-mer]	64	64	–
Ac-AAAAKAAAAKAAAAKAW-NH2 [AAKA]	48	48	–
Ac-AAAAKAAAAKAW-NH2 [AAKA 12-mer]	17	17	ellipticity ratio 222/208 nm ([1]; CD in 10% TFE/PBS, 25 °C): 0.47; % helicity ([1]; CD in 10% TFE/PBS, 25 °C): 35%; ellipticity ratio 222/208 nm ([1]; CD in PBS, 25 °C): 0.26
Ac-ADAAAAAAAKAAAAKAW-NH2 [ADAA]	55	55	–
Ac-ADAALLAAAKAAAAKAW-NH2 [ADLL]	45	45	–
Ac-LDAALLAAAKAW-NH2	–	28	–
Ac-LDAALLAAAKAW-NH2 [LDLL-short]	–	–	H/D exchange experiment, per-residue value (Fig 5i) ([3]; resi ID 1): 0.3; H/D exchange experiment, per-residue value (Fig 5i) ([3]; resi ID 3): 1.3; H/D exchange experiment, per-residue value (Fig 5i) ([3]; resi ID 4): 1.66; H/D exchange experiment, per-residue value (Fig 5i) ([3]; resi ID 5): 1.96; H/D exchange experiment, per-residue value (Fig 5i) ([3]; resi ID 6): 1.83; H/D exchange experiment, per-residue value (Fig 5i) ([3]; resi ID 7): 1.96; H/D exchange experiment, per-residue value (Fig 5i) ([3]; resi ID 9): 2.2; H/D exchange experiment, per-residue value (Fig 5i) ([3]; resi ID 10): 1.69; H/D exchange experiment, per-residue value (Fig 5i) ([3]; resi ID 11): 1.68
Ac-QAEELLRALDQY-NH2 [2l]	13	13	ellipticity ratio 222/208 nm ([1]; CD in 10% TFE/PBS, 25 °C): 0.53; % helicity ([1]; CD in 10% TFE/PBS, 25 °C): 23%; ellipticity ratio 222/208 nm ([1]; CD in PBS, 25 °C): 0.27
Ac-QVARQLAEIY-NH2 [1l]	16	16	ellipticity ratio 222/208 nm ([1]; CD in 10% TFE/PBS, 25 °C): 0.64; % helicity ([1]; CD in 10% TFE/PBS, 25 °C): 20%; ellipticity ratio 222/208 nm ([1]; CD in PBS, 25 °C): 0.48
WCAAACCAAAKA (also: bicyclic or more (positions not given here)) [bicyclo-D/A 12-mer, bicyclo 12-mer with Asp Ncap replaced with Ala]	–	–	reduction of helicity on substitution of Asp Ncap by Ala ([1]; CD in PBS, relative to bicyclo 12-mer): 49%

From article PMC11101637, “Bioinformatics leading to conveniently accessible, helix enforcing, bicyclic ASX motif mimics (BAMMs)” (Nature Communications, 2024)
